According to ChEMBL document CHEMBL4393698, “Exploring the effect of chirality on the therapeutic potential of N-alkyl-deoxyiminosugars: anti-inflammatory response to Pseudomonas aeruginosa infections for application in CF lung disease” (Eur J Med Chem, 2019):
pIC50: −log10 of the molar value. Calls of active or inactive are those of the source. The calls are words filed in the database; no cut-off is given here.

Legend:
CuFi-1 [1] = assay: Induction of apoptosis in human CuFi1 cells incubated for 48 hrs by Muse Annexin V based cell counter assay; settings: cufi-1, 48 h
CuFi-1 [2] = assay: Cytotoxicity against human CuFi1 cells assessed as reduction in cell viability incubated for 48 hrs by Muse cell analyser method; type: cell-based; settings: cufi-1, 48 h
CuFi-1 [3] = assay: Anti-inflammatory activity in human CuFi1 cells assessed as reduction in Pseudomonas aeruginosa PAO1-induced IL-8 mRNA expression level at 0.1 uM pretreated for 1 hr followed by Pseudomonas aeruginosa PAO1 challenge and measured after 4 hrs by RT-PCR analysis relative to control; type: functional; parameters: scale not given: the % may be the effect or the level left
CuFi-1 [4] = assay: Anti-inflammatory activity in human CuFi1 cells assessed as reduction in Pseudomonas aeruginosa PAO1-induced IL-8 mRNA expression level pretreated for 1 hr followed by Pseudomonas aeruginosa PAO1 challenge and measured after 4 hrs by RT-PCR analysis relative to control; type: functional
Pseudomonas aeruginosa [5] = assay: Anti-inflammatory activity in Pseudomonas aeruginosa PAO1 infected C57Bl/6NCr mouse assessed as reduction in amount of neutrophils in lungs at 100 mg/kg, po administered via gavage pretreated for 1 to 24 hrs followed by Pseudomonas aeruginosa PAO1 challenge and measured after 6 hrs; type: functional, organism-based
Pseudomonas aeruginosa [6] = assay: Anti-inflammatory activity in Pseudomonas aeruginosa PAO1 infected C57Bl/6NCr mouse assessed as increase in alveolar macrophages in lungs at 10 mg/kg, po administered via gavage pretreated for 1 to 24 hrs followed by Pseudomonas aeruginosa PAO1 challenge and measured after 6 hrs; type: functional, organism-based
Homo sapiens = species: Homo sapiens; assay: Anti-inflammatory activity in human Bronchial epithelial cells assessed as reduction in Pseudomonas aeruginosa PAO1-induced IL-8 mRNA expression level at 10 nM pretreated for 1 hr followed by Pseudomonas aeruginosa PAO1 challenge and measured after 4 hrs by RT-PCR analysis relative to control; type: functional
[7] = Toxicity in Pseudomonas aeruginosa PAO1 infected C57Bl/6NCr mouse assessed as change in body weight at 100 mg/kg, po administered via gavage pretreated for 1 to 24 hrs followed by Pseudomonas aeruginosa PAO1 challenge and measured after 6 hrs; type: organism-based; settings: in vivo
CuFi-1 [8] = assay: Anti-inflammatory activity in human CuFi1 cells assessed as reduction in Pseudomonas aeruginosa PAO1-induced IL-8 mRNA expression level pretreated for 1 hr followed by Pseudomonas aeruginosa PAO1 challenge and measured after 4 hrs by RT-PCR analysis; type: functional, cell-based
Pseudomonas aeruginosa [9] = assay: Anti-inflammatory activity in Pseudomonas aeruginosa PAO1 infected C57Bl/6NCr mouse assessed as reduction in bacterial CFU in BAL at 10 mg/kg, po administered via gavage pretreated for 1 to 24 hrs followed by Pseudomonas aeruginosa PAO1 challenge and measured after 6 hrs; type: functional, organism-based
Pseudomonas aeruginosa [10] = assay: Anti-inflammatory activity in Pseudomonas aeruginosa PAO1 infected C57Bl/6NCr mouse assessed as reduction in bacterial CFU in lungs at 10 mg/kg, po administered via gavage pretreated for 1 to 24 hrs followed by Pseudomonas aeruginosa PAO1 challenge and measured after 6 hrs; type: functional, organism-based
[11] = Toxicity in Pseudomonas aeruginosa PAO1 infected C57Bl/6NCr mouse assessed as change in body weight at 10 to 100 mg/kg, po administered via gavage pretreated for 1 to 24 hrs followed by Pseudomonas aeruginosa PAO1 challenge and measured after 6 hrs; type: organism-based; settings: in vivo
Pseudomonas aeruginosa [12] = assay: Anti-inflammatory activity in Pseudomonas aeruginosa PAO1 infected C57Bl/6NCr mouse assessed as reduction in amount of neutrophils recruited in BAL at 10 mg/kg, po administered via gavage pretreated for 1 to 24 hrs followed by Pseudomonas aeruginosa PAO1 challenge and measured after 6 hrs; type: functional, organism-based
Pseudomonas aeruginosa [13] = assay: Anti-inflammatory activity in Pseudomonas aeruginosa PAO1 infected C57Bl/6NCr mouse assessed as reduction in bacteria detected in lungs dosed orally via gavage pretreated for 1 to 24 hrs followed by Pseudomonas aeruginosa PAO1 challenge and measured after 6 hrs; type: functional, organism-based
Pseudomonas aeruginosa [14] = assay: Anti-inflammatory activity in Pseudomonas aeruginosa PAO1 infected C57Bl/6NCr mouse assessed as reduction in amount of bacteria recovered in airway at 10 mg/kg, po administered via gavage pretreated for 1 to 24 hrs followed by Pseudomonas aeruginosa PAO1 challenge and measured after 6 hrs; type: functional, organism-based
[15] = molecular target: T1, Beta-glucosidase (Homo sapiens) (UniProt Q9HCG7); settings: SH-SY5Y, 1 nM
T1 sequence (whole entry): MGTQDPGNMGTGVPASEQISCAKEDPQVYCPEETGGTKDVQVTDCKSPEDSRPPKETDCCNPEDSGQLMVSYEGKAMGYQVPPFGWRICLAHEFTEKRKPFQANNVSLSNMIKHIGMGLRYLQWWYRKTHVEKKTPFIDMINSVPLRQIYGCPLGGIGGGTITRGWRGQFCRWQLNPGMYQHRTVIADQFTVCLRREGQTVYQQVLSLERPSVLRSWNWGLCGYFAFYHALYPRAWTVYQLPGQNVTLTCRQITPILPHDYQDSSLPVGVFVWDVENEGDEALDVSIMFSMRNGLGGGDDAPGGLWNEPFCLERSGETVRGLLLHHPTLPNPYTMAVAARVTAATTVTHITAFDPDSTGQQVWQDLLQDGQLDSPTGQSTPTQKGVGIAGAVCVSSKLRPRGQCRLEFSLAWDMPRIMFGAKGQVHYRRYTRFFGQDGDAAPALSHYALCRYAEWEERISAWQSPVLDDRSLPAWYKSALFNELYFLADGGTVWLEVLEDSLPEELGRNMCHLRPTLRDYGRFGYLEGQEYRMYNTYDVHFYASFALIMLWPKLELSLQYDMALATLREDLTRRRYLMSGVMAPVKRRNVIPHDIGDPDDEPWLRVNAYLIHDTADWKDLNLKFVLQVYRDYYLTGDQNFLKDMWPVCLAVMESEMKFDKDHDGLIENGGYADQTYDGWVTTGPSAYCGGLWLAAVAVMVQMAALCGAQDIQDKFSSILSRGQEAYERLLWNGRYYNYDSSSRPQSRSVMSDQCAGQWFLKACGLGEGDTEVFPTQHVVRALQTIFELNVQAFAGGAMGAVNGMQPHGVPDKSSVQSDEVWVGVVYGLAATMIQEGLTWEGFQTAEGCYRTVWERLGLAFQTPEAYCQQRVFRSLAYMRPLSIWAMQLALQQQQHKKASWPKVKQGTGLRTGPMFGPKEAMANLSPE

Beta-glucosidase = molecular target: T2, Beta-glucosidase (Homo sapiens, UniProt Q9HCG7)
T2 sequence (Q9HCG7 whole entry): T1 sequence (whole entry)

[16] = molecular target: T3, Lysosomal acid glucosylceramidase (Homo sapiens) (UniProt P04062); settings: SH-SY5Y, 1 nM
T3 sequence (whole entry): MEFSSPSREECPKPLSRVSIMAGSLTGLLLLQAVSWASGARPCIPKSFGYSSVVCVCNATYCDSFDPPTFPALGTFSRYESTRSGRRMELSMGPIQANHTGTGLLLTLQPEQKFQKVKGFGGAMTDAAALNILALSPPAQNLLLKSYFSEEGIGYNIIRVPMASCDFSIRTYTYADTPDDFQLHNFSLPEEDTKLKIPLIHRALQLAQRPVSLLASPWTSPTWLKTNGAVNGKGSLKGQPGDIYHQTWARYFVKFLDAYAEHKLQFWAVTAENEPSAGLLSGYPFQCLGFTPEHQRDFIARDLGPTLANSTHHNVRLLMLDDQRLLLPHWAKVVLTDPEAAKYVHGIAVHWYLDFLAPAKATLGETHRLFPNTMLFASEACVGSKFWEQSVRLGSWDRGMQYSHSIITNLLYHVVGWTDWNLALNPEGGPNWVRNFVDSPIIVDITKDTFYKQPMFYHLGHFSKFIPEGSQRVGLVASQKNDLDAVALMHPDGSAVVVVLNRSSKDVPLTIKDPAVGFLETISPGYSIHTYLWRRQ

Row | pIC50 (CuFi-1 [8]) | Compound | Activity (CuFi-1 [1]) | Activity (CuFi-1 [2]) | Activity (CuFi-1 [3]) | Imax (CuFi-1 [4]) | also measured
1 | 9.02 | CCCCN1CC(O)C(O)C(O)C1CO (racemic) | Non-Toxic | Non-Toxic | 30% | 36% | Activity (Pseudomonas aeruginosa [5]): inactive; Activity (Pseudomonas aeruginosa [6]): Active; Activity (Homo sapiens): Active; Activity [7]: Non-Toxic; Activity (Pseudomonas aeruginosa [9]): Active; Activity (Pseudomonas aeruginosa [10]): Active
2 | 5.70 | CCCCN1C[C@H](O)[C@@H](O)[C@H](O)[C@H]1CO | Non-Toxic | Non-Toxic | – | 50% | Activity [11]: Non-Toxic
3 | 9.22 | CCCCCCCCCN1CC(O)C(O)C(O)C1CO (racemic) | Non-Toxic | Non-Toxic | 22% | 12% | –

The next lines start with the molecule.

Row | Compound | pIC50 (CuFi-1 [8]) | Activity (CuFi-1 [1]) | Activity (CuFi-1 [2]) | Activity (CuFi-1 [3]) | Imax (CuFi-1 [4]) | also measured
4 | CCCCCCCCCN1C[C@@H](O)[C@H](O)[C@@H](O)[C@@H]1CO | – | Non-Toxic | Non-Toxic | 16% | – | –
5 | OC[C@H]1[C@H](O)[C@@H](O)[C@H](O)CN1CCCCCOCC12CC3CC(CC(C3)C1)C2 | – | Non-Toxic | Non-Toxic | 29% | – | –
6 | CCCCN1C[C@@H](O)[C@H](O)[C@@H](O)[C@@H]1CO | – | Non-Toxic | Non-Toxic | <=20% | – | Activity [11]: Non-Toxic; Activity (Pseudomonas aeruginosa [12]): Active; Activity (Pseudomonas aeruginosa [13]): inactive; Activity (Pseudomonas aeruginosa [14]): Active
7 | CCCCCCOCCCCCN1C[C@@H](O)[C@H](O)[C@@H](O)[C@@H]1CO | – | – | – | – | – | Imax [15]: 100%; pIC50 (Beta-glucosidase): 4.44; Imax [16]: 65%
8 | CCCCCCOCCCCCN1CC(O)C(O)C(O)C1CO (racemic) | – | – | – | – | – | Imax [15]: 100%; pIC50 (Beta-glucosidase): 9.00
9 | OCC1C(O)C(O)C(O)CN1CCCCCOCC12CC3CC(CC(C3)C1)C2 (racemic) | 8.74 | Non-Toxic | Non-Toxic | 42% | 29% | Activity (Homo sapiens): Active
10 | OC[C@@H]1[C@@H](O)[C@H](O)[C@@H](O)CN1CCCCCOCC12CC3CC(CC(C3)C1)C2 | 8.74 | Non-Toxic | Non-Toxic | – | – | –
11 | CCCCCCOCCCCCN1C[C@H](O)[C@@H](O)[C@H](O)[C@H]1CO | – | – | – | – | – | Imax [15]: 100%; pIC50 (Beta-glucosidase): 9.40; Imax [16]: 100%
12 | CCCCCCCCCN1C[C@H](O)[C@@H](O)[C@H](O)[C@H]1CO | – | Non-Toxic | Non-Toxic | 8% | – | –
